# Changes are numbered by the printed parent chain. Read-outs that look alike come from different tables or passages of the source.
# What was measured:
# [1] = molecular target: T1, human lysosomal α-Gal A (Homo sapiens, UniProt P06280); experiment: In vitro inhibition of α-Gal A (recombinant, expressed in Sf-9 insect cells); assay type: biochemical; conditions: for IC50 / Ki: p-nitrophenyl-α-D-galactopyranoside as substrate; for IC50: pH 4.5; for reduction of inhibitory potential / affinity for α-Gal A relative to DGJ: compared with DGJ; for Ki: read-out: Ki for α-Gal A, from the slope of Lineweaver-Burk plots
# T1 construct: made in house; host or cells: Sf-9 insect cells, recombinant baculovirus
# T1 sequence (P06280 32-429): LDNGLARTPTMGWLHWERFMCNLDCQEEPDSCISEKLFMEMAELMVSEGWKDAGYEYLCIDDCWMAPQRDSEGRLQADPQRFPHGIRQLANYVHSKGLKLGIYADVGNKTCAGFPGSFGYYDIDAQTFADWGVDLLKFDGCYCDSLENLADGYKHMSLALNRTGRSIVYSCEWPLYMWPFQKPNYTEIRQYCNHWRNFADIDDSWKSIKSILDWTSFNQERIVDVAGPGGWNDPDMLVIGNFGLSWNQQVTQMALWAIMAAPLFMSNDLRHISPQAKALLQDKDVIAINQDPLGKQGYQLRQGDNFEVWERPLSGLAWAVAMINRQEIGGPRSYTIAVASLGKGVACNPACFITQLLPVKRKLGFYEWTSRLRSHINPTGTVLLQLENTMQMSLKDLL
# [2] = molecular target: T2, mutant α-Gal A (R301Q) (Homo sapiens, UniProt P06280, R301Q); experiment: Intracellular enhancement of α-Gal A activity in Fabry lymphoblasts; assay type: cell-based; design: endogenous in cells; host or cells: Epstein-Barr virus-transformed lymphoblasts from a Fabry patient (R301Q); conditions: for intracellular α-Gal A activity in Fabry lymphoblasts (summary): concentration ranges of 10-1000 μM; for increase of α-Gal A enzyme activity in R301Q lymphoblasts: inhibitor at 100 μM; for enhancement of α-Gal A activity in R301Q lymphoblasts: inhibitor at 1000 μM
# T2 sequence (P06280 32-429 R301Q): T1 sequence (P06280 32-429) with R270Q
# Method: FIG. 4B depicts results in which each inhibitor was added to the culture medium of R301Q lymphoblasts at a concentration of 100 μM. Cells were subsequently incubated for 4 days. After being washed twice with phosphate-buffered saline, the intracellular enzyme activity was determined with 4-MU-α-Gal as the substrate.
# R301Q lymphoblasts were cultured with DGJ (4) ([…]), α-allo-HNJ (9) (▪), α-galacto-HNJ (10) (▴), or β-1-C-butyl-DGJ (16) (♦) at 1-1000 μM for 4 days before being collected for enzyme assay.
# In FIG. 6B, R301Q lymphoblasts were cultured with calystegine B2 (18) and the results are shown therein. In FIG. 6C, R301Q lymphoblasts were cultured with N-methyl calystegine A3 (19) and the results are shown therein. In FIG. 6D R301Q lymphoblasts were cultured with N-methyl calystegine B2 (20) at 100-1000 μM for 4 days before being collected for enzyme assay and the results are shown therein.
# The Epstein-Barr virus-transformed lymphoblast lines from a normal adult and a Fabry patient with R301Q mutation in α-Gal A (38) were cultured in RPMI-1640 medium (Nissui Pharmaceutical Co., Tokyo, Japan) supplemented with 10% fetal calf serum (FCS) at 37° C. under 5% CO2. Human fibroblasts from Gaucher and GM1-gangliosidosis patients were cultured in McCoy 5A medium supplemented with 10% FCS at 37° C. under 5% CO2.
# Cells were cultured in the presence or absence of inhibitor for 4 days. After being washed twice with phosphate-buffered saline (PBS), the cells were harvested and homogenized in 200 μl of H2O, and 10 μl of the supernatant obtained by centrifugation at 10,000 g was incubated at 37° C. with 50 μl of the substrate solution composed by 6 mM 4-methylumbelliferyl α-D-galactoside (4-MU-α-Gal) and 90 mM N-acetylgalactosamine in 0.1 M citrate buffer (pH 4.5) for enzyme assay. One unit of intracellular enzyme activity was defined as one nmol of 4-methylumbelliferone released per hour at 37° C.
# [3] = molecular target: human β-glucocerebrosidase (Homo sapiens, UniProt P04062); experiment: In vitro inhibition of human β-glucocerebrosidase; assay type: biochemical; conditions: for IC50: 0.1M citrate buffer (pH 5.2), 4-MU-β-Glu as substrate
# human β-glucocerebrosidase, sequence (P04062 40-536): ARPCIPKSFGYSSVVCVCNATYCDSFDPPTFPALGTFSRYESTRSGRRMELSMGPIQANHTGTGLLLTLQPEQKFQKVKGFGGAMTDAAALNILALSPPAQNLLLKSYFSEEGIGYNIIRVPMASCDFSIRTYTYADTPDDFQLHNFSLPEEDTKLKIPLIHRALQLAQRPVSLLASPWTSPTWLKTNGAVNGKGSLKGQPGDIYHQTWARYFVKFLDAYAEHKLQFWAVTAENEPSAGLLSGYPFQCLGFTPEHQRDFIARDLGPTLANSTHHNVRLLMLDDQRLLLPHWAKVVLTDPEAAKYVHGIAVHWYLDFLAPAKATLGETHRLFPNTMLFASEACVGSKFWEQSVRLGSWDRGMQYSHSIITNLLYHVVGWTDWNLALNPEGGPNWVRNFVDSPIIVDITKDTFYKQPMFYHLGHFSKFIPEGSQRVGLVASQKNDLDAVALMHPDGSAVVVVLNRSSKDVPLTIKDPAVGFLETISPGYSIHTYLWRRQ
# [4] = molecular target: T3, glucocerebrosidase (β-Glu), N370S/N370S (Homo sapiens, UniProt P04062, N409S); experiment: Intracellular enhancement of β-Glu activity in Gaucher fibroblasts (N370S/N370S); assay type: cell-based; conditions: for intracellular β-Glu activity in Gaucher fibroblasts (summary): concentration ranges of 0.05-100 μM
# T3 construct: endogenous in cells; host or cells: human Gaucher patient fibroblasts, genotype N370S/N370S
# T3 sequence (P04062 40-536 N409S): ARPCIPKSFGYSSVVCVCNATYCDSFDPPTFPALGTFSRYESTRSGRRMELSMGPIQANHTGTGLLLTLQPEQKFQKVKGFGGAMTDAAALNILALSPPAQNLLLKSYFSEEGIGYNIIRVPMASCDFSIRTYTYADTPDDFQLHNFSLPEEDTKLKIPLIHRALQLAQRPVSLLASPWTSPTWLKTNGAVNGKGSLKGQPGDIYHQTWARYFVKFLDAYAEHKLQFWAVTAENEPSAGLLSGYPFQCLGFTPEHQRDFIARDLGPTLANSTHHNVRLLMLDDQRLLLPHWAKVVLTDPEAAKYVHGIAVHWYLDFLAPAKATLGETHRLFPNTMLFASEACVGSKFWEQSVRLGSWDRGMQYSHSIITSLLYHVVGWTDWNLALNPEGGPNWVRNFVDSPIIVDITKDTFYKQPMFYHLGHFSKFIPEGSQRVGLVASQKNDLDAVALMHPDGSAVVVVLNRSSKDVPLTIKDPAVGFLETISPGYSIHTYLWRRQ
# [5] = IC30 and (Ki)*: IC50 values (inhibitor concentration giving 50% inhibition) for α-Gal A
# [6] = read-out: IC30 and (Ki)*: IC50 values (inhibitor concentration giving 50% inhibition) for α-Gal A
# [7] = N370S/N370S, compound at 10 μM, 5 days
# [8] = N370S/N370S, compound at 100 μM, 5 days
compound,measurement,setting,value
"OCC1NCC(O)C(O)C1O (stereo not drawn) [compound 2, 1-Deoxymannojirimycin]",inhibition of α-Gal A (in words),[1],no appreciable inhibition even at 1000 μM
"OCC1NCC(O)C(O)C1O (stereo not drawn) [compound 3, 1-Deoxy-3-epi-nojirimycin]",inhibition of α-Gal A (in words),[1],no appreciable inhibition even at 1000 μM
"OC[C@H]1NC[C@H](O)[C@H](O)[C@H]1O [compound 5, 1-deoxy-3,4-diepi-nojirimycin]",inhibition of α-Gal A (in words),[1],no appreciable inhibition even at 1000 μM
"OCC1NCCC(O)C1O (stereo not drawn) [compound 6, 1,2-dideoxy-galactonojirimycin]",IC50,[1]; [5],250 µM
same,reduction of inhibitory potential / affinity for α-Gal A relative to DGJ,[1],over 6000 fold
"OCC1NC(CO)C(O)C(O)C1O (stereo not drawn) [compound 7, α-Homonojirimycin]",inhibition of α-Gal A (in words),[1],not an inhibitor
same,IC50,[1]; [5],> 1000 µM
"OCC1NC(CO)C(O)C(O)C1O (stereo not drawn) [compound 8, α-homomannojirimycin]",inhibition of α-Gal A (in words),[1],weak inhibitor
same,IC50,[1]; [5],464 µM
"OC[C@H]1N[C@H](CO)[C@@H](O)C(O)[C@H]1O (stereo partly drawn) [compound 9, α-homoallonojirimycin]",inhibition mode toward α-Gal A (Lineweaver-Burk plots),[1],competitive inhibitors
same,Ki,[1],2.6 µM
same,IC50,[1]; [6],4.3 µM
same,intracellular α-Gal A activity in Fabry lymphoblasts (summary),[2],effectively increase
same,increase of α-Gal A enzyme activity in R301Q lymphoblasts,[2]; 4 days,2.4 fold
same,enhancement of α-Gal A activity in R301Q lymphoblasts,[2]; 4 days,3.9 fold
"OC[C@H]1N[C@H](CO)[C@H](O)C(O)[C@H]1O (stereo partly drawn) [compound 10, α-Homogalactonojirimycin]",inhibition mode toward α-Gal A (Lineweaver-Burk plots),[1],competitive inhibitors
same,reduction of inhibitory potential / affinity for α-Gal A relative to DGJ,[1],approximately 4 fold
same,Ki,[1],0.17 µM
same,IC50,[1]; [6],0.21 µM
same,intracellular α-Gal A activity in Fabry lymphoblasts (summary),[2],effectively increase
same,increase of α-Gal A enzyme activity in R301Q lymphoblasts,[2]; 4 days,5.2 fold
same,enhancement of α-Gal A activity in R301Q lymphoblasts,[2]; 4 days,12.5 fold
"CN1CC(O)C(O)C(O)C1CO (stereo not drawn) [compound 11, N-Methyl-1-deoxygalactonojirimycin]",IC50,[1]; [5],96 µM
"CCN1CC(O)C(O)C(O)C1CO (stereo not drawn) [compound 12, N-Ethyl-1-deoxygalactonojirimycin]",IC50,[1]; [5],306 µM
"CCCN1CC(O)C(O)C(O)C1CO (stereo not drawn) [compound 13, N-Propyl-1-deoxygalactonojirimycin]",IC50,[1]; [5],301 µM
"OCCN1CC(O)C(O)C(O)C1CO (stereo not drawn) [compound 15, N-Hydroxyethyl-1-deoxygalactonojirimycin]",IC50,[1]; [5],520 µM
"CN1C2CCC1(O)C(O)C(O)C2 (stereo not drawn) [compound 19, N-methyl calystegine A3]",intracellular α-Gal A activity in Fabry lymphoblasts (summary),[2],effectively increase
same,α-Gal A activity in R301Q lymphoblasts with increasing concentration of calystegine compound,"[2]; range 100-1000 μM, 4 days, FIG. 6",elevated with increasing concentration
"O[C@@H]1[C@@H](O)C[C@]2(O)CC[C@H]1N2 [compound 22, calystegine A5]",IC50,[3],31 µM
"O[C@@H]1C[C@]2(O)N[C@H]1C[C@@H](O)[C@@H]2O [compound 23, calystegine B1]",IC50,[3],2.5 µM
same,intracellular β-Glu activity in Gaucher fibroblasts (summary),[4],effectively enhance
"O[C@@H]1[C@@H](O)[C@H]2CC[C@](O)(N2)[C@@H]1O [compound 24, calystegine B3]",IC50,[3],76 µM
"O[C@@H]1[C@H](O)[C@H]2CC[C@](O)(N2)[C@H]1O [compound 25, calystegine B4]",IC50,[3],82 µM
"OC1CC2(O)NC1C(O)C(O)C2O (stereo not drawn) [compound 26, calystegine C1]",IC50,[3],2.5 µM
same,intracellular β-Glu activity in Gaucher fibroblasts (summary),[4],effectively enhance
"OC[C@H]1NC[C@@H](O)[C@@H]1O [compound 28, 1,4-dideoxy-1,4-imino-D-arabinitol]",IC50,[3],160 µM
"CCCCN1C[C@H](CO)[C@@H](O)[C@H](O)C1 [compound 34, N-Butyl-isofagomine]",IC50,[3],44 µM
same,elevation of residual β-Glu activity in Gaucher cells,[4]; [7],73%
same,elevation of residual β-Glu activity in Gaucher cells,[4]; [8],56%
same,intracellular β-Glu activity in Gaucher fibroblasts (summary),[4],effectively enhance
"OCC1CN(CCCC2CCCCC2)CC(O)C1O (stereo not drawn) [compound 35, N-(3-cyclohexylpropyl)-isofagomine]",IC50,[3],100 µM
same,elevation of residual β-Glu activity in Gaucher cells,[4]; [7],106%
same,elevation of residual β-Glu activity in Gaucher cells,[4]; [8],47%
same,intracellular β-Glu activity in Gaucher fibroblasts (summary),[4],effectively enhance
"OCC1CN(CCCc2ccccc2)CC(O)C1O (stereo not drawn) [compound 36, N-(3-phenylpropyl)-isofagomine]",IC50,[3],69 µM
same,elevation of residual β-Glu activity in Gaucher cells,[4]; [7],50%
same,elevation of residual β-Glu activity in Gaucher cells,[4]; [8],54%
same,intracellular β-Glu activity in Gaucher fibroblasts (summary),[4],effectively enhance
"CC(C)=CCC/C(C)=C\CC/C(C)=C/CN1CC(O)C(O)C(CO)C1 (stereo not drawn) [compound 37, N-[(2E,6Z,10Z)-3,7,11-trimethyldodecatrienyl]-isofagomine]",IC50,[3],1.5 µM
same,increase in potency against β-Glu compared with the 4 carbon chain compound,[3]; compared with compound 32 (so in the source),30 fold
same,elevation of residual β-Glu activity in Gaucher cells,[4]; [7],43%
same,decrease of residual β-Glu activity in Gaucher cells,[4]; [8],53%
same,intracellular β-Glu activity in Gaucher fibroblasts (summary),[4],effectively enhance
DNJ bisulfite [compound 32],IC50,[3],28 µM

# Source: patent US20150258129A1, “Method for Increasing the Activity of Lysosomal Enzymes” (Mount Sinai School of Medicine of New York University, priority 1998, published 2015)
